Test results: patent US10195208B2, “Combination therapy” (Novartis AG, priority 2014, dated 2019)
Values joined by “and” are separate entries in the source; they are usually repeats but may differ in a detail not shown here. Equal values may be shown once.

Tests used:
[1] = Tolerability (body weight) in Compound A resistant HCC827 mouse xenograft model; conditions: for Final BW (g) mean ± SD: day 14; for BW (%) mean, percent body weight change: day 14 versus day of treatment initiation
Procedure: INC280-AA-3 was formulated in 0.25% MC (methylcellulose) 0.05% Tween 80 in water, solution. […] Animals were weighed on dosing days and doses were body weight adjusted. Tumor volumes were measured by digital caliper 3 times a week and body weights of all animals were recorded throughout the study.
Body weight was monitored daily and the % change in body weight was calculated as (BWcurrent−BWinitial)/(BWinitial)×100. Data is presented as percent body weight change from the day of treatment initiation.

[2] = test system: Compound A resistant NSCLC HCC827 tumor; test: Efficacy study in Compound A resistant HCC827 mouse xenograft model (GNF-11-308-138); format: in vivo, SCID beige mice; conditions: for Individual tumor volume: single animals; for Tumor volume, group Mean: n=6; for Mean initial Tumor Volume (mm^3 ± SE): initial day of dosing
[3] = test system: HCC827; test: Cell proliferation assay (CellTiter-Glo), dose matrix combination, HCC827 parental; format: cell-based, human; conditions: HCC827 parental line, 72 hours
Procedure: HCC827 was obtained from ATCC. HCC827 GR5 (resistant to Gefitinib) was obtained from Jeff Engleman lab at Massachusetts General Hospital. Both cells were cultured in RPMI-1640 (ATCC, #30-2001) with 10% FBS (Thermo scientific, #SH30071.03) and maintained in a 37° C., 5% CO2 incubator. Cells were passaged twice a week using TrypLE™ Express (Invitrogen, #12604-013), an animal origin-free recombinant enzyme used for dissociating adherent mammalian cells compare to the regular trypsin.
Cell viability was determined by measuring cellular ATP content using the CellTiter-Glo® (CTG) luminescent cell viability assay (Promega #G7573) according to the manufacturer's protocol. […] At the end of the drug treatment, 100 ul CTG reagent was added to each well to lyse the cells, and luminescence signals were recorded in the Envision plate reader (Perkin Elmer).
To evaluate the combination effect in a non-bias way and to identify synergistic effect at all possible concentrations, the combination studies were conducted with a “dose matrix”, where a combination is tested in all possible permutations of serially-diluted compounds. […] The synergistic interaction was analyzed using Chalice software (CombinatoRx, Cambridge Mass.). Synergy was calculated by comparing a combination's response to those of its single agents, against the drug-with-itself dose-additive reference model. […]

[4] = test system: EGFR and cMET phosphorylation; test: Acute PD western blot of pEGFR and pMET in resistant NCI-HCC827 tumors; format: in vivo, SCID beige mice; conditions: single dose; Compound A 30 mg/kg, INC280 10 mg/kg; tumors taken 6 hours post dose
From the text: SCID beige mice bearing the Erlotinib resistant tumors (Animals 2-5), n=1 per group, a total of 4 groups and randomized 50 days post tumor fragment implantation with an average tumor volume of 1236.18 mm^3 and SD of 316.57 mm^3. Compound A resistant HCC827 tumors ([…]) were randomized into 4 groups (n=3 mice per group) 24 days post tumor fragment implantation with an average tumor volume of 963.24 mm^3 with SD 179.56 mm^3. Animals in each group received once daily oral administration of Compound A at 30 mg/kg or twice daily INC280-AA-3 at 10 mg/kg alone or in combination.
Evaluation of target inhibition of pEGFR and pMET were done by western blot analysis. 40 […] of tumor lysate proteins were electrophoresed per sample using Criterion 4-12% Bis-Tris gels (Bio-Rad, Cat #345-0124). Upon completion of protein transfer, membranes were incubated with 5% BSA (Sigma) in TBST (25 mM Tris, 150 mM NaCl, 0.1% Tween-20) for 1 h at room temperature to block non-specific binding. […]

[5] = Compound A 30 mg/kg QD, INC280 10 mg/kg BID
[6] = day 0 post dosing (day 22 post implant)
[7] = day 2 post dosing (day 24 post implant)
[8] = day 5 post dosing (day 27 post implant)
[9] = day 7 post dosing (day 29 post implant)
[10] = day 9 post dosing (day 31 post implant)
[11] = day 12 post dosing (day 34 post implant)
[12] = day 14, Compound A 30 mg/kg QD, INC280 10 mg/kg BID, oral
[13] = day 14 post dosing (day 36 post implant)
[14] = Compound A 30 mg/kg QD, INC280 10 mg/kg BID, oral

Compound | Final BW (g) mean ± SD [1, 5] | BW (%) mean, percent body weight change [1] | Initial BW (g) mean ± SD [1, 5] | Individual tumor volume [2, 6] | Tumor volume, group Mean ([2]; day 0 post dosing) | Individual tumor volume [2, 7] | Tumor volume, group Mean ([2]; day 2 post dosing) | Individual tumor volume [2, 8] | Tumor volume, group Mean ([2]; day 5 post dosing) | Individual tumor volume [2, 9] | Tumor volume, group Mean ([2]; day 7 post dosing) | Individual tumor volume [2, 10] | Tumor volume, group Mean ([2]; day 9 post dosing) | Individual tumor volume [2, 11] | Tumor volume, group Mean ([2]; day 12 post dosing) | Mean final Tumor Volume (mm^3 ± SE) [2, 12] | Individual tumor volume [2, 13] | Tumor volume, group Mean ([2]; day 14 post dosing) | Mean initial Tumor Volume (mm^3 ± SE) [2, 14] | inhibition of EGFR and cMET phosphorylation in tumor lysates (western) [4] | further results
Cc1cc(C(=O)Nc2nc3cccc(Cl)c3n2[C@@H]2CCCCN(C(=O)/C=C/CN(C)C)C2)ccn1 [Compound A, (R,E)-N-(7-chloro-1-(1-(4-(dimethylamino)but-2-enoyl)azepan-3-yl)-1H-benzo[d]imidazol-2-yl)-2-methylisonicotinamide] | 22.58 ± 1.00 g | 5.39% | 21.43 ± 0.77 g | 470.34 mm^3 and 502.24 mm^3 and 547.37 mm^3 and 597.98 mm^3 and 657.77 mm^3 and 694.21 mm^3 | 578.32 mm^3 | 425.76 mm^3 and 474.70 mm^3 and 500.47 mm^3 and 718.94 mm^3 and 679.81 mm^3 and 723.63 mm^3 | 587.22 mm^3 | 447.17 mm^3 and 509.01 mm^3 and 478.72 mm^3 and 709.28 mm^3 and 723.82 mm^3 and 730.32 mm^3 | 599.72 mm^3 | 641.63 mm^3 and 591.63 mm^3 and 523.15 mm^3 and 792.15 mm^3 and 837.06 mm^3 and 800.58 mm^3 | 697.70 mm^3 | 595.65 mm^3 and 822.67 mm^3 and 611.23 mm^3 and 877.37 mm^3 and 891.82 mm^3 and 940.84 mm^3 | 789.93 mm^3 | 932.76 mm^3 and 885.77 mm^3 and 742.37 mm^3 and 1125.55 mm^3 and 1019.63 mm^3 and 1028.22 mm^3 | 955.72 mm^3 | 1063.26 ± 93.45 mm^3 | 882.62 mm^3 and 1115.99 mm^3 and 727.98 mm^3 and 1076.46 mm^3 and 1368.14 mm^3 and 1208.36 mm^3 | 1063.26 mm^3 | 578.32 ± 35.84 mm^3 | selective depletion of pEGFR and pMET expression | anti-tumor activity in words ([2]; 14 days, Compound A 30 mg/kg QD, INC280 10 mg/kg BID, oral, versus vehicle): not significantly different from vehicle; single agent response, cell viability [3]: only respond to Compound A
CNC(=O)c1ccc(-c2cnc3ncc(Cc4ccc5ncccc5c4)n3n2)cc1F [INC280, 2-fluoro-N-methyl-4-[(7-quinolin-6-yl-methyl)-imidazo[1,2-b]triazin-2-yl]benzamide] | 19.95 ± 1.58 g | −3.83% | 20.74 ± 0.79 g | 456.20 mm^3 and 520.06 mm^3 and 543.63 mm^3 and 640.13 mm^3 and 655.67 mm^3 and 713.33 mm^3 | 588.17 mm^3 | 531.11 mm^3 and 641.24 mm^3 and 502.64 mm^3 and 784.24 mm^3 and 667.19 mm^3 and 674.14 mm^3 | 633.43 mm^3 | 869.50 mm^3 and 753.37 mm^3 and 556.93 mm^3 and 822.50 mm^3 and 628.26 mm^3 and 834.83 mm^3 | 744.23 mm^3 | 690.94 mm^3 and 653.24 mm^3 and 589.97 mm^3 and 675.03 mm^3 and 699.40 mm^3 and 627.01 mm^3 | 655.93 mm^3 | 646.47 mm^3 and 649.16 mm^3 and 572.94 mm^3 and 510.69 mm^3 and 613.71 mm^3 and 594.99 mm^3 | 597.99 mm^3 | 688.69 mm^3 and 617.11 mm^3 and 487.07 mm^3 and 531.80 mm^3 and 432.97 mm^3 and 585.67 mm^3 | 557.22 mm^3 | 760.84 ± 81.62 mm^3 | 1030.71 mm^3 and 948.57 mm^3 and 521.81 mm^3 and 674.65 mm^3 and 598.62 mm^3 and 790.69 mm^3 | 760.84 mm^3 | 588.17 ± 39.56 mm^3 | selective depletion of pEGFR and pMET expression | tolerability in words ([1]; 14 day treatment, Compound A 30 mg/kg QD, INC280 10 mg/kg BID): well tolerated for rest of the study; group body weight change ([1]; day 7): −8.5%; group body weight change ([1]; day 8): −5.66%; Mean T/C (percent treated versus control; negative = regression) [2, 12]: 23%
